The source of these data is ChEMBL document CHEMBL4049445.

Active and inactive are the calls of the source. No cut-off for these calls is given here.

For the test, the system named is Influenza A virus. Briefly: Antiviral activity against Influenza A virus A/PR/8/34 expressing amantadine-resistant M2 proton channel S31N mutant infected in MDCK cells. In kind it is functional, cell-based. As to conditions: A/Puerto Rico/8/1934(H1N1).

With `C1CC(C23CC4CC(CC(C4)C2)C3)CCN1`, the outcome was inactive.
For `C(=C1C2CC3CC(C2)CC1C3)C1CCNCC1`, the outcome was inactive.
Next, `C1CC(C2C3CC4CC(C3)CC2C4)CCN1` (configuration not stated): “inactive”; `N=C(N)N1CCC(C23CC4CC(CC(C4)C2)C3)CC1`: “inactive”.
For `CCN1CCC(C2C3CC4CC(C3)CC2C4)CC1` (configuration not stated) the value was “inactive”; for `C1CCC(C23CC4CC(CC(C4)C2)C3)NC1` (configuration not stated), “inactive”.
As to `C1CC(CC2C3CC4CC(C3)CC2C4)CCN1` (configuration not stated), the result was inactive.
For `N=C(N)N1CCC(C=C2C3CC4CC(C3)CC2C4)CC1`, the outcome was inactive.
Consider `N=C(N)N1CCC(CC2C3CC4CC(C3)CC2C4)CC1` (configuration not stated), for which the outcome was inactive.
Next, `OC1(CC2CCNCC2)C2CC3CC(C2)CC1C3` (configuration not stated): “inactive”; `CN1CCC(CC2C3CC4CC(C3)CC2C4)CC1` (configuration not stated): “inactive”.
Next, `OC1(C2CCNCC2)C2CC3CC(C2)CC1C3` (configuration not stated): “inactive”.
